Results: ChEMBL document CHEMBL2150926 (J Med Chem, 2011)
pIC50, pKi: −log10 of the molar value. ≈ marks a conversion by molar mass, not a printed value.

Key:
[1] = biological target: Protein kinase C delta type (Homo sapiens, UniProt Q05655); experiment: Inhibition of PKCdelta by scintillation proximity assay
[2] = biological target: Protein kinase C theta type (Homo sapiens, UniProt Q04759); experiment: Inhibition of PKCtheta by scintillation proximity assay
[3] = biological target: Protein kinase C eta type (Homo sapiens, UniProt P24723); experiment: Inhibition of PKCeta by scintillation proximity assay
[4] = biological target: Protein kinase C beta type (Homo sapiens, UniProt P05771); experiment: Inhibition of PKCbeta-1 by scintillation proximity assay
[5] = biological target: Protein kinase C alpha type (Homo sapiens, UniProt P17252); experiment: Inhibition of PKCalpha by scintillation proximity assay
[6] = biological target: T1, Protein kinase C epsilon type (Homo sapiens, UniProt Q02156); experiment: Inhibition of PKCepsilon by scintillation proximity assay
T1 sequence (Q02156 whole entry): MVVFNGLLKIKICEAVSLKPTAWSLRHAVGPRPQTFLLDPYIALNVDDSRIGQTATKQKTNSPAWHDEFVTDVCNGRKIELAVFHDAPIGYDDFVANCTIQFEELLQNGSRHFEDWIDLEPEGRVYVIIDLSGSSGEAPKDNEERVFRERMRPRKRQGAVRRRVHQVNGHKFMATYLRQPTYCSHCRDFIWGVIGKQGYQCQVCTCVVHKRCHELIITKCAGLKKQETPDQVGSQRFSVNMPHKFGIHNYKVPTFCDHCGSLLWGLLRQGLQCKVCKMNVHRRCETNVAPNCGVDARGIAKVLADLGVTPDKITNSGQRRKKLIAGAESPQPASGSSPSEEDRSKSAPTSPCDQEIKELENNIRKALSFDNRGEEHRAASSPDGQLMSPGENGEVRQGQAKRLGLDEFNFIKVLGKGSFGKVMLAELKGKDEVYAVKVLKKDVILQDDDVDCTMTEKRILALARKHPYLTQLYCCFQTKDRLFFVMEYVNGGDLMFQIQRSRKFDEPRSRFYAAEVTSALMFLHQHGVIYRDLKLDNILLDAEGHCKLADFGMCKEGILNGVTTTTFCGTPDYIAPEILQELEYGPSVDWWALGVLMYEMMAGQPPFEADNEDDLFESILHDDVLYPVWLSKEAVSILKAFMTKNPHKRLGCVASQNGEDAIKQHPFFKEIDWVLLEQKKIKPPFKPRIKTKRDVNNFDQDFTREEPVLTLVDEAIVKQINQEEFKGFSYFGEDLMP

[7] = Immunosuppressive activity in mouse lymphocytes assessed as alloantigen-induced T cell proliferation by mixed lymphocyte reaction assay; format: functional, cell-based
[8] = tested on: Jurkat; experiment: Inhibition of human Jurkat cell activation assessed as TCR/CD28 stimulated inhibition of IL-2 secretion; format: functional, cell-based
[9] = tested on: Blood; experiment: AUC (0 to 24 hrs) in Wistar rat blood at 30 mg/kg, po administered as single dose; format: ADME, organism-based; set-up: time < 24 hr, dose 30 mg/kg, route oral; details: in vivo
[10] = Immunosuppressive activity in human lymphocytes assessed as alloantigen-induced T cell proliferation by mixed lymphocyte reaction assay; format: functional, cell-based
[11] = tested on: Cynomolgus monkey; experiment: Dose normalized AUC (0 to infinity) in cynomolgus monkey at 20 mg/kg, po; format: ADME, organism-based, Macaca fascicularis; set-up: dose 20 mg/kg, route oral; details: in vivo
[12] = Volume of distribution at steady state in cynomolgus monkey at 5 mg/kg, iv; format: ADME, organism-based, Macaca fascicularis; set-up: dose 5 mg/kg, route intravenous; details: in vivo, read-out: Vdss
[13] = Total plasma clearance in cynomolgus monkey at 5 mg/kg, iv; format: ADME, organism-based, Macaca fascicularis; set-up: dose 5 mg/kg, route intravenous
[14] = Fraction unbound in OFA rat plasma at 20 mg/kg, po; format: ADME, organism-based; set-up: dose 20 mg/kg, route oral
[15] = Elimination half life in Balb/c mouse at 5 mg/kg, iv; format: ADME, organism-based; set-up: dose 5 mg/kg, route intravenous; details: in vivo, read-out: beta t1/2 (converted)
[16] = tested on: Cynomolgus monkey; experiment: Dose normalized AUC (0 to infinity) in cynomolgus monkey at 5 mg/kg, iv; format: ADME, organism-based, Macaca fascicularis; set-up: dose 5 mg/kg, route intravenous; details: in vivo
[17] = Intrinsic clearance in cynomolgus monkey liver microsomes at 20 mg/kg, po; format: ADME, Macaca fascicularis, Microsome; set-up: dose 20 mg/kg, route oral; details: read-out: CLH
[18] = Solubility of the compound in fed state simulated intestinal fluid at pH 5.8; format: physicochemical
[19] = biological target: Cytochrome P450 3A4 (Homo sapiens, UniProt P08684); experiment: Inhibition of CYP3A4-catalyzed midazolam 1'-hydroxylation in human liver microsomes; format: ADME, Microsome
[20] = tested on: Rattus norvegicus; experiment: Dose normalized AUC (0 to infinity) in OFA rat 20 mg/kg, po; format: ADME, organism-based; set-up: dose 20 mg/kg, route oral; details: in vivo
[21] = Solubility of the compound in fasted state simulated intestinal fluid at pH 6.5; format: physicochemical
[22] = Tmax in Balb/c mouse at 30 mg/kg, po; format: ADME, organism-based; set-up: dose 30 mg/kg, route oral; details: in vivo
[23] = Oral bioavailability in Balb/c mouse at 30 mg/kg; format: ADME, organism-based; details: in vivo
[24] = tested on: Mus musculus; experiment: Dose normalized AUC (0 to infinity) in Balb/c mouse at 5 mg/kg, iv; format: ADME, organism-based; set-up: dose 5 mg/kg, route intravenous; details: in vivo
[25] = Intrinsic solubility of the compound at pH 6.8; format: physicochemical; details: buffer, read-out: Intrinsic_solubility
[26] = tested on: Mus musculus; experiment: Dose normalized AUC (0 to infinity) in Balb/c mouse at 30 mg/kg, po; format: ADME, organism-based; set-up: dose 30 mg/kg, route oral; details: in vivo
[27] = Volume of distribution at steady state in Balb/c mouse at 5 mg/kg, iv; format: ADME, organism-based; set-up: dose 5 mg/kg, route intravenous; details: in vivo, read-out: Vdss
[28] = tested on: Thymus; experiment: AUC (0 to 24 hrs) in Wistar rat thymus at 30 mg/kg, po administered as single dose; format: ADME, organism-based; set-up: time < 24 hr, dose 30 mg/kg, route oral; details: in vivo
[29] = tested on: Spleen; experiment: AUC (0 to 24 hrs) in Wistar rat spleen at 30 mg/kg, po administered as single dose; format: ADME, organism-based; set-up: time < 24 hr, dose 30 mg/kg, route oral; details: in vivo
[30] = tested on: Rattus norvegicus; experiment: Dose normalized AUC (0 to infinity) in OFA rat at 5 mg/kg, iv; format: ADME, organism-based; set-up: dose 5 mg/kg, route intravenous; details: in vivo
[31] = Fraction unbound in cynomolgus monkey plasma at 20 mg/kg, po; format: ADME, organism-based, Macaca fascicularis; set-up: dose 20 mg/kg, route oral
[32] = AUC (0 to 24 hrs) in Wistar rat mesenteric lymph node at 30 mg/kg, po administered as single dose; format: ADME, organism-based; set-up: time < 24 hr, dose 30 mg/kg, route oral; details: in vivo
[33] = Solubility of the compound in simulated gastric fluid at pH 2.0; format: physicochemical
[34] = Tmax in cynomolgus monkey at 20 mg/kg, po; format: ADME, organism-based, Macaca fascicularis; set-up: dose 20 mg/kg, route oral; details: in vivo
[35] = Intrinsic clearance in Balb/c mouse liver microsomes at 30 mg/kg, po; format: ADME, Microsome; set-up: dose 30 mg/kg, route oral; details: read-out: CLH
[36] = Apparent permeability in human Caco2 cells; format: ADME, cell-based; details: Caco-2
[37] = Intrinsic clearance in OFA rat liver microsomes at 20 mg/kg, po; format: ADME, Microsome; set-up: dose 20 mg/kg, route oral; details: read-out: CLH
[38] = Oral bioavailability in cynomolgus monkey at 20 mg/kg; format: ADME, organism-based, Macaca fascicularis; details: in vivo
[39] = Elimination half life in cynomolgus monkey at 5 mg/kg, iv; format: ADME, organism-based, Macaca fascicularis; set-up: dose 5 mg/kg, route intravenous; details: in vivo, read-out: beta t1/2 (converted)
[40] = Octanol-water partition coefficient, log P of the compound; format: physicochemical
[41] = Lipophilicity, log D of the compound at pH 6.8; format: physicochemical; details: buffer
[42] = Total plasma clearance in Balb/c mouse at 5 mg/kg, iv; format: ADME, organism-based; set-up: dose 5 mg/kg, route intravenous
[43] = tested on: Mus musculus; experiment: Drug metabolism in po dosed Balb/c mouse assessed as 3-(1H-Indol-3-yl)-4-(2-piperazin-1-yl-quinazolin-4-yl)pyrrole-2,5-dione level relative to parent compound; format: ADME, organism-based; details: in vivo
[44] = tested on: Rattus norvegicus; experiment: AUC (0 to 24 hrs) in Wistar rat at 30 mg/kg, po administered as single dose; format: ADME, organism-based, Plasma; set-up: time < 24 hr, dose 30 mg/kg, route oral; details: in vivo

Sequence of Protein kinase C delta type (Q05655 whole entry): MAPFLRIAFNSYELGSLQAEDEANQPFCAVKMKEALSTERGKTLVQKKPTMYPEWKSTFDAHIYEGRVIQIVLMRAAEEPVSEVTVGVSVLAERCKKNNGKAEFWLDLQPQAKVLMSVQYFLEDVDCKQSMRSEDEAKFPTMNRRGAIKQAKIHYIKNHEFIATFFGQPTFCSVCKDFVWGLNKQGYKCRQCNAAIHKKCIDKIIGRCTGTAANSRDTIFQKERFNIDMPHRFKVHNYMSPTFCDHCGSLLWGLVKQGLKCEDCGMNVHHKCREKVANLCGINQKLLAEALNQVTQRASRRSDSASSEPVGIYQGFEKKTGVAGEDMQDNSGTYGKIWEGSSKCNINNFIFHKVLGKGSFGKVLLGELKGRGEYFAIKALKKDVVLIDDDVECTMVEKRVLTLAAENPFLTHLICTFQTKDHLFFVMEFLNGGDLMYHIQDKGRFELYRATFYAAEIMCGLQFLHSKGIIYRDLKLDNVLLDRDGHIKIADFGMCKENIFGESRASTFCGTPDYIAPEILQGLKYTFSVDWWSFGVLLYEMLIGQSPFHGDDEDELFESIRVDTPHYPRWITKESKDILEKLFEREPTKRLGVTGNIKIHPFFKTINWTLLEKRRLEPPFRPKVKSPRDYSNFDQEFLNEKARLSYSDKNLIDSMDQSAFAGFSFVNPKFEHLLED
Sequence of Protein kinase C theta type (Q04759 whole entry): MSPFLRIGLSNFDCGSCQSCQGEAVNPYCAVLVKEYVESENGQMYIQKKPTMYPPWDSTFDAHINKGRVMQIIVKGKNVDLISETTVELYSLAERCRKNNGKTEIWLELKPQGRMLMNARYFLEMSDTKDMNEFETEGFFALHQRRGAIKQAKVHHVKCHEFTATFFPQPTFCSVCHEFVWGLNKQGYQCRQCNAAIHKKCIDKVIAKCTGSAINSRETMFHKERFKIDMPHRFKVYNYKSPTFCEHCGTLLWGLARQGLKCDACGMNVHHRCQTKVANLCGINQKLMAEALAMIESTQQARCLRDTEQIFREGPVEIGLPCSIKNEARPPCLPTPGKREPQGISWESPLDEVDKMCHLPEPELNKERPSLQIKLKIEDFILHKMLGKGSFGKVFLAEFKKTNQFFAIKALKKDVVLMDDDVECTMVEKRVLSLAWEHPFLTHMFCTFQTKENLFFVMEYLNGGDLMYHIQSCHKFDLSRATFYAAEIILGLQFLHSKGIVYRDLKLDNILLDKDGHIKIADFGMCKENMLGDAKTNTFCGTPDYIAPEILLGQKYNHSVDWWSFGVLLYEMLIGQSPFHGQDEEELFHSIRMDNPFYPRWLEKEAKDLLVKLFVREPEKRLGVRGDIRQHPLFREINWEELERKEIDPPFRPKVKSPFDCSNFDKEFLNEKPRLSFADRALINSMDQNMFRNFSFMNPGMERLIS
Sequence of Protein kinase C eta type (P24723 whole entry): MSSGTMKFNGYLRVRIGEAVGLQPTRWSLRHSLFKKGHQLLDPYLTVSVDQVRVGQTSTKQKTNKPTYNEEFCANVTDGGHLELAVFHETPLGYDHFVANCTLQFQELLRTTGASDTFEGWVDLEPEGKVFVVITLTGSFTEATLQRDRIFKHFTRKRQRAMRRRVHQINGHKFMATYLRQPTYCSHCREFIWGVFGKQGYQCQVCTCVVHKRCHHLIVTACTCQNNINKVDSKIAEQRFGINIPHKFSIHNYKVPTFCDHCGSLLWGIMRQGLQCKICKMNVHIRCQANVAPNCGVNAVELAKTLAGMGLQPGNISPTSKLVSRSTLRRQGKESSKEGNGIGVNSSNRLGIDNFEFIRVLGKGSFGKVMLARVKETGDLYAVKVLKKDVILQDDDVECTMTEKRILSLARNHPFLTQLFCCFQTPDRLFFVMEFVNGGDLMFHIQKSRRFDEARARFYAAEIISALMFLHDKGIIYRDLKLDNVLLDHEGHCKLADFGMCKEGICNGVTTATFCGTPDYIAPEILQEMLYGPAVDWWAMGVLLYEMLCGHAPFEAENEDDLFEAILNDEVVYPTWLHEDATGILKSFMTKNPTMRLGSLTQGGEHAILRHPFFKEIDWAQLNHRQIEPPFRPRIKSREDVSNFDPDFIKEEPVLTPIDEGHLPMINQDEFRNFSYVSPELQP
Sequence of Protein kinase C beta type (P05771 whole entry): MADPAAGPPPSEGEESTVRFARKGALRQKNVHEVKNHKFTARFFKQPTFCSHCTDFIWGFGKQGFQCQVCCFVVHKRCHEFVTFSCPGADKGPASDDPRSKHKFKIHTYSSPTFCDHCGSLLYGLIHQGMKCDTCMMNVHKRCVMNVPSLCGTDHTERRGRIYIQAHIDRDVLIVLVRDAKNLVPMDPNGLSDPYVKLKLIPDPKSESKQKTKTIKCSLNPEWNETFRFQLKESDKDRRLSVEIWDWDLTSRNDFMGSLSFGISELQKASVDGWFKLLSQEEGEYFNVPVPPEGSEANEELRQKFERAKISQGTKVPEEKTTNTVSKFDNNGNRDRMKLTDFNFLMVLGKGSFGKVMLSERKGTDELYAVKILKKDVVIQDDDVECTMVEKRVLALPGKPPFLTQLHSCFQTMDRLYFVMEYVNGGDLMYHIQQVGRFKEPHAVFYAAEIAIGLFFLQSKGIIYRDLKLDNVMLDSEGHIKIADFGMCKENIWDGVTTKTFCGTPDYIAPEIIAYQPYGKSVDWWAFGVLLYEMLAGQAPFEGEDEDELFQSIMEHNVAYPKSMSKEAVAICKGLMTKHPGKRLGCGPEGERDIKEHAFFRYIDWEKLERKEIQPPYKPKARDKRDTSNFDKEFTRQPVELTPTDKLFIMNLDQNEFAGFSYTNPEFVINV
Sequence of Cytochrome P450 3A4 (P08684 whole entry): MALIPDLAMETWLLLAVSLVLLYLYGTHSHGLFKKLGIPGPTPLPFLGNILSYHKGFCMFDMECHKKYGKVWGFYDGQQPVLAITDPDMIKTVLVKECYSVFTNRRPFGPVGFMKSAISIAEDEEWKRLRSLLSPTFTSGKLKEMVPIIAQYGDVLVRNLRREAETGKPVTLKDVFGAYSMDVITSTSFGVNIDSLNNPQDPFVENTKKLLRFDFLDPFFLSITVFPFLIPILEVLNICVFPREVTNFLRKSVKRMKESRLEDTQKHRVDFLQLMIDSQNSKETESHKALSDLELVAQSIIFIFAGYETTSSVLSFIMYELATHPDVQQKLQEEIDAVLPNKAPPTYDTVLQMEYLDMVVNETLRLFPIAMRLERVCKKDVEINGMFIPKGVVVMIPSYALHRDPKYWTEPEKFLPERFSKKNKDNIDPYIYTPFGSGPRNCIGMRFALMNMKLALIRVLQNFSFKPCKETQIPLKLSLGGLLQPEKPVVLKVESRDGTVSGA

Cc1cccc2nc(N3CCN(C)CC3)nc(C3=C(c4c[nH]c5ccccc45)C(=O)NC3=O)c12
pIC50 [1]: 8.49
pIC50 [2]: 8.54
pIC50 [3]: 8.04
pIC50 [4]: 8.42
pIC50 [5]: 8.44
pIC50 [6]: 8.21

CN1CCN(c2nc(C3=C(c4c[nH]c5ccccc45)C(=O)NC3=O)c3cc(C(C)(C)C)ccc3n2)CC1
pIC50 [1]: < 6.50
pIC50 [2]: < 6.50
pIC50 [3]: < 6.50
pIC50 [4]: < 6.50
pIC50 [5]: < 6.50
pIC50 [6]: < 6.50

CN1CCN(c2nc(C3=C(c4c[nH]c5ccccc45)C(=O)NC3=O)c3cc(Cl)ccc3n2)CC1
pIC50 [1]: 8.92
pIC50 [2]: 8.92
pIC50 [3]: 8.27
pIC50 [4]: 7.64
pIC50 [5]: 8.77
pIC50 [6]: 8.41

CN1CCN(c2cc(C3=C(c4c[nH]c5ccccc45)C(=O)NC3=O)c3ccccc3n2)CC1
pIC50 [1]: 7.57
pIC50 [7]: 6.24
pIC50 [2]: 7.51
pIC50 [3]: 6.93
pIC50 [4]: 8.28
pIC50 [8]: 7.10
pIC50 [5]: 8.44
pIC50 [6]: 7.14

O=C1NC(=O)C(c2c[nH]c3ccccc23)=C1c1nc(N2CCNCC2)nc2ccccc12
pIC50 [1]: 9.40
AUC [9]: 85 ng·h/g
pIC50 [7]: 6.07
pIC50 [2]: 9.30
pIC50 [3]: 9.00
pIC50 [4]: 9.22
pIC50 [5]: 9.30
pIC50 [6]: 9.05
pIC50 [10]: 7.29

CN1CCN(c2nc(C3=C(c4c[nH]c5ccccc45)C(=O)NC3=O)c3ccccc3n2)CC1 [SOTRASTAURIN]
AUC/dose [11]: 128 ng·h/mL
Vd [12]: 5.9 L/kg
clearance [13]: 23 mL/min/kg
fraction unbound [14]: 0.011
half-life [15]: 2.5 h
AUC/dose [16]: 720 ng·h/mL
microsomal CLint [17]: 433 µL/min/mg
solubility [18]: 530 µg/mL (≈ 1210 µM)
pKi [19]: 5.54
AUC/dose [20]: 110 ng·h/mL
solubility [21]: 410 µg/mL (≈ 935 µM)
Tmax [22]: 0.5 h
bioavailability [23]: 19%
AUC/dose [24]: 371 ng·h/mL
pIC50 [7]: 6.82
solubility [25]: 19 µg/mL (≈ 43.3 µM)
AUC/dose [26]: 72 ng·h/mL
Vd [27]: 3.1 L/kg
AUC [28]: 12644 ng·h/g
AUC [29]: 30887 ng·h/g
AUC/dose [30]: 326 ng·h/mL
fraction unbound [31]: 0.024
AUC [32]: 20478 ng·h/g
solubility [33]: 780 µg/mL (≈ 1780 µM)
Tmax [34]: 8 h
microsomal CLint [35]: 248 µL/min/mg
Papp [36]: 4.5 ×10⁻⁶ cm/s
microsomal CLint [37]: 505 µL/min/mg
bioavailability [38]: 18%
half-life [39]: 4.8 h
logP [40]: 2.9
logD [41]: 2.4
clearance [42]: 45 mL/min/kg
fold change (FC) [43]: 2
AUC [44]: 1952 ng·h/g
pIC50 [10]: 7.43

CC(C)n1cc(C2=C(c3nc(N4CCN(C)CC4)nc4ccccc34)C(=O)NC2=O)c2ccccc21
pIC50 [1]: 8.57
pIC50 [2]: 8.42
pIC50 [3]: 7.96
pIC50 [4]: 8.11
pIC50 [5]: 7.96
pIC50 [6]: 7.96

Cc1[nH]c2ccccc2c1C1=C(c2nc(N3CCN(C)CC3)nc3ccccc23)C(=O)NC1=O
pIC50 [1]: 7.60
pIC50 [2]: 7.59
pIC50 [3]: 7.19
pIC50 [4]: 7.66
pIC50 [5]: 7.20
pIC50 [6]: 7.14

CN1CCN(c2nc(C3=C(c4c[nH]c5cccc(Cl)c45)C(=O)NC3=O)c3ccccc3n2)CC1
pIC50 [1]: 7.03
pIC50 [2]: 6.66
pIC50 [3]: 6.69
pIC50 [4]: 7.32
pIC50 [5]: 6.69
pIC50 [6]: < 6.50

CN1CCN(c2nc(C3=C(c4c[nH]c5ccccc45)C(=O)NC3=O)c3cc(F)ccc3n2)CC1
pIC50 [1]: 9.22
pIC50 [2]: 9.22
pIC50 [3]: 8.72
pIC50 [4]: 8.92
pIC50 [5]: 9.00
pIC50 [6]: 8.70

CN1CCN(c2nc(C3=C(c4c[nH]c5c(Cl)cccc45)C(=O)NC3=O)c3ccccc3n2)CC1
pIC50 [1]: 8.21
pIC50 [2]: 8.15
pIC50 [3]: 7.77
pIC50 [4]: 8.22
pIC50 [5]: 8.04
pIC50 [6]: 7.72
